According to patent US20060069132A1, “Azolecarboxamide herbicides” (priority 2004, published 2006):

What was measured:
[1] = tested on: pigweed; experiment: Test B pre-/postemergence herbicide test; assay type: in vivo, Amaranthus retroflexus
Outline: (§1)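 Formulation: non-phytotoxic solvent mix with surfactant. Timing: preemergence on seed and postemergence on 2–18 cm plants, applied concurrently. Readout after 13–15 d greenhouse: visual 0–100 control rating against controls.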

[2] = tested on: wild oat; experiment: Test B postemergence herbicide test; assay type: in vivo, Avena fatua; conditions: scale 0 (no effect) to 100 (complete control); for Plant response rating, Oat, Wild: visual rating after 13 to 15 days
Outline: (§2)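 Greenhouse test; postemergence application to plants at 1–4 leaves (2–18 cm); paddy species at 2 leaves; evaluated visually vs controls at 13–15 days; scale 0–100 (100 = complete control).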

[3] = tested on: morningglory; experiment: Test B pre-/postemergence herbicide test; assay type: in vivo, Ipomoea coccinea
Outline: as §1

[4] = tested on: lambsquarters; experiment: Test B pre-/postemergence herbicide test; assay type: in vivo, Chenopodium album
Outline: as §1

[5] = tested on: rice; experiment: Test B flooded paddy test; assay type: in vivo, Oryza sativa; conditions: 1000 g ai/ha, scale 0 to 100 (0 no effect, 100 complete control)
Outline: (§3)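 Scale 0–100: zero equals no visible effect, 100 complete control, judged by eye relative to controls. Timing: 13 to 15 days in greenhouse post-treatment. Growth stage at spraying: two leaves (paddy) or one to four leaves, 2–18 cm (postemergence).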

[6] = tested on: barnyardgrass; experiment: Test B flooded paddy test; assay type: in vivo, Echinochloa crus-galli; conditions: 1000 g ai/ha, scale 0 to 100 (0 no effect, 100 complete control)
Outline: as §3

[7] = tested on: giant foxtail; experiment: Test B pre-/postemergence herbicide test; assay type: in vivo, Setaria faberi
Outline: as §1

[8] = tested on: Surinam grass; experiment: Test B pre-/postemergence herbicide test; assay type: in vivo, Urochloa decumbens
Outline: as §1

[9] = tested on: large crabgrass; experiment: Test B pre-/postemergence herbicide test; assay type: in vivo, Digitaria sanguinalis
Outline: as §1

[10] = tested on: ducksalad; experiment: Test B flooded paddy test; assay type: in vivo, Heteranthera limosa; conditions: 1000 g ai/ha, scale 0 to 100 (0 no effect, 100 complete control)
Outline: as §3

[11] = tested on: velvetleaf; experiment: Test B pre-/postemergence herbicide test; assay type: in vivo, Abutilon theophrasti
Outline: as §1

[12] = tested on: wheat; experiment: Test B postemergence herbicide test; assay type: in vivo, Triticum aestivum; parameters: key to Wheat plant response rating: 0 = no effect, 100 = complete control; conditions: for Plant response rating, Wheat: visual rating after 13 to 15 days
Outline: as §2

[13] = tested on: cocklebur; experiment: Test B pre-/postemergence herbicide test; assay type: in vivo, Xanthium strumarium
Outline: as §1

[14] = tested on: corn; experiment: Test B pre-/postemergence herbicide test; assay type: in vivo, Zea mays
Outline: as §1

[15] = tested on: barnyardgrass; experiment: Test B pre-/postemergence herbicide test; assay type: in vivo, Echinochloa crus-galli
Outline: as §1

[16] = Postemergence, 500 g ai/ha, visual rating after 13 to 15 days, scale 0 (no effect) to 100 (complete control)
[17] = postemergence, 125 g ai/ha, visual rating, scale 0 (no effect) to 100 (complete control)
[18] = preemergence, 125 g ai/ha, 0 to 100 scale, 0 is no effect, 100 is complete control
[19] = Preemergence, 500 g ai/ha, scale 0 to 100
[20] = Postemergence, 500 g ai/ha, scale 0 (no effect) to 100 (complete control)
[21] = 125 g ai/ha, 0 is no effect, 100 is complete control, preemergence
[22] = 125 g ai/ha, visual rating, scale 0 (no effect) to 100 (complete control), postemergence
[23] = postemergence, 500 g ai/ha, scale 0 to 100, 0 is no effect, 100 is complete control
[24] = Postemergence, 125 g ai/ha, scale 0 (no effect) to 100 (complete control)

CCn1nc(C(C)(C)C)cc1C(=O)Nc1cccc(C(=O)NCC2CC2)c1 [Compound 62]
50: Surinam Grass plant response rating [8, 17] | Plant response rating, Barnyardgrass [15, 16]
20: Morningglory plant response rating [3, 17] | Plant response rating, Crabgrass, Large [9, 16] | Plant response rating, Corn [14, 16] | Barnyardgrass plant response rating [15, 17] | Plant response rating, Barnyardgrass [15, 18]
90: Plant response rating, Pigweed [1, 16] | Plant response rating, Lambsquarters [4, 16] | Foxtail, Giant plant response rating [7, 19]
0: Wheat plant response rating [12, 17] | Plant response rating, Cocklebur [13, 18] | Plant response rating, Corn [14, 18]
60: Plant response rating, Morningglory [3, 16] | Velvetleaf plant response rating [11, 17]
30: Plant response rating, Oat, Wild ([2]; Postemergence, 500 g ai/ha) | Rice plant response rating ([5]; visual rating, 13 to 15 days) | Plant response rating, Foxtail, Giant [7, 16]
70: Barnyardgrass plant response rating ([6]; visual rating, 13 to 15 days) | Plant response rating, Foxtail, Giant [7, 18] | Plant response rating, Surinam Grass [8, 16] | Plant response rating, Velvetleaf [11, 16] | Cocklebur plant response rating [13, 17]
100: Plant response rating, Pigweed [1, 18] | Plant response rating, Lambsquarters [4, 18] | Crabgrass, Large plant response rating [9, 19] | Plant response rating, Cocklebur [13, 16]
80: Pigweed plant response rating [1, 17] | Lambsquarters plant response rating [4, 17] | Plant response rating, Crabgrass, Large [9, 18] | Ducksalad plant response rating ([10]; visual rating, 13 to 15 days) | Plant response rating, Velvetleaf [11, 18] | Barnyardgrass plant response rating [15, 19]
10: Oat, Wild plant response rating ([2]; postemergence, 125 g ai/ha, visual rating) | Plant response rating, Morningglory [3, 18] | Foxtail, Giant plant response rating [7, 17] | Plant response rating, Surinam Grass [8, 18] | Crabgrass, Large plant response rating [9, 17] | Plant response rating, Wheat [12, 20] | Cocklebur plant response rating [13, 19] | Corn plant response rating [14, 19] | Corn plant response rating [14, 17]

CCc1nn(C(C)C)nc1C(=O)Nc1cccc(C(=O)N(C)CC)c1 [Compound 386]
40: Velvetleaf plant response rating [11, 22] | Cocklebur plant response rating [13, 22] | Plant response rating (0 to 100 scale), Corn [14, 21]
20: Morningglory plant response rating [3, 22] | Morningglory plant response rating [3, 20] | Foxtail, Giant plant response rating [7, 22] | Foxtail, Giant plant response rating [7, 23] | Crabgrass, Large plant response rating [9, 23] | Plant response rating (0 to 100 scale), Cocklebur [13, 21]
100: Plant response rating (0 to 100 scale), Pigweed [1, 21] | Plant response rating (0 to 100 scale), Lambsquarters [4, 21] | Plant response rating (0 to 100 scale), Crabgrass, Large [9, 21] | Wheat plant response rating ([12]; 500 g ai/ha, scale 0 to 100, 0 no effect, 100 complete control, preemergence)
60: Pigweed plant response rating [1, 20] | Lambsquarters plant response rating [4, 20] | Plant response rating (0 to 100 scale), Velvetleaf [11, 21]
0: Oat, Wild plant response rating ([2]; 125 g ai/ha, visual rating, postemergence) | Oat, Wild plant response rating ([2]; Postemergence, 500 g ai/ha) | Wheat plant response rating [12, 22] | Wheat plant response rating [12, 20] | Corn plant response rating [14, 22] | Barnyardgrass plant response rating [15, 22]
50: Pigweed plant response rating [1, 22] | Plant response rating (0 to 100 scale), Morningglory [3, 21] | Velvetleaf plant response rating [11, 20] | Cocklebur plant response rating [13, 23]
90: Barnyardgrass plant response rating [6] | Plant response rating (0 to 100 scale), Foxtail, Giant [7, 21] | Ducksalad plant response rating [10] | Plant response rating (0 to 100 scale), Barnyardgrass [15, 21]
30: Lambsquarters plant response rating [4, 22]
10: Surinam Grass plant response rating [8, 22] | Surinam Grass plant response rating [8, 20] | Crabgrass, Large plant response rating [9, 22] | Corn plant response rating [14, 23] | Barnyardgrass plant response rating [15, 23]
80: Rice plant response rating [5] | Plant response rating (0 to 100 scale), Surinam Grass [8, 21]

CCNC(=O)c1cccc(NC(=O)c2cc(C(C)(C)C)nn2CCF)c1 [Compound 35]
100: Plant response rating, Pigweed [1, 16] | Pigweed plant response rating [1, 19] | Plant response rating, Pigweed [1, 18] | Lambsquarters plant response rating [4, 19] | Foxtail, Giant plant response rating [7, 19] | Plant response rating, Cocklebur [13, 16] | Barnyardgrass plant response rating [15, 19]
50: Plant response rating, Velvetleaf [11, 16] | Plant response rating, Velvetleaf [11, 18] | Cocklebur plant response rating [13, 24]
80: Lambsquarters plant response rating [4, 24] | Plant response rating, Foxtail, Giant [7, 18] | Surinam Grass plant response rating [8, 19] | Ducksalad plant response rating ([10]; visual rating, 13 to 15 days)
90: Plant response rating, Lambsquarters [4, 16] | Plant response rating, Lambsquarters [4, 18] | Barnyardgrass plant response rating ([6]; visual rating, 13 to 15 days) | Crabgrass, Large plant response rating [9, 19]
20: Foxtail, Giant plant response rating [7, 24] | Plant response rating, Foxtail, Giant [7, 16] | Crabgrass, Large plant response rating [9, 24] | Plant response rating, Crabgrass, Large [9, 16] | Plant response rating, Wheat [12, 20] | Plant response rating, Barnyardgrass [15, 16]
0: Oat, Wild plant response rating ([2]; Postemergence, 125 g ai/ha)
60: Rice plant response rating ([5]; visual rating, 13 to 15 days) | Velvetleaf plant response rating [11, 19]
40: Plant response rating, Surinam Grass [8, 16] | Plant response rating, Surinam Grass [8, 18] | Corn plant response rating [14, 19]
10: Plant response rating, Oat, Wild ([2]; Postemergence, 500 g ai/ha) | Morningglory plant response rating [3, 19] | Plant response rating, Morningglory [3, 18] | Barnyardgrass plant response rating [15, 24]
30: Cocklebur plant response rating [13, 19]
